# ChEMBL document CHEMBL1201862, “PubChem BioAssay data set” (2004)
# Values joined by “and” are separate entries in the source; they are usually repeats but may differ in a detail not shown here. Equal entries are not always repeated. Active and inactive are the calls of the source.
# Experiments:
# Cytochrome P450 2C19 = Cytochrome P450 2C19 (Homo sapiens, UniProt P33261); test: Cytochrome panel assay with activity outcomes. Panel member name: p450-cyp2c19 Compounds with AC50 equal or less than 10 uM are considered active; format: functional
# Cytochrome P450 2D6 = Cytochrome P450 2D6 (Homo sapiens, UniProt P10635);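 also: CYP2D6 member of a cytochrome P450 panel assay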
# Cytochrome P450 3A4 = Cytochrome P450 3A4 (Homo sapiens, UniProt P08684);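 also: CYP3A4 tested as one member of a cytochrome P450 panel screen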
# [1] = Luminescence Cell-Based Dose Response HTS to Identify Inhibitors of 5'UTR Stem-Loop Driven Prion Protein mRNA Translation in H4 Neuroglioblastoma Cells. [Related pubchem assays: 1827 (Project Summary), 1813 (Primary HTS)]; format: functional
# [2] = inhibitors of SNCA 5'UTR-driven reporter translation, confirmation, H4 neuroglioma cells, luminescence (AID 1988); format: functional, cell-based
# [3] = Luminescence Cell-Based Dose Response HTS to Identify Activators of Luciferase Translation or Activity in H4 […] Cells. [Related pubchem assays: 1829 (Project Summary), 1814 (Primary HTS)]; format: functional
# H4 = test: Luminescence Cell-Based Dose Response HTS to Identify Activators of 5'UTR Stem-Loop Driven Prion Protein mRNA Translation in H4 Neuroglioblastoma Cells. [Related pubchem assays: 1829 (Project Summary), 1814 (Primary HTS)]; format: functional; settings: Homo sapiens
# INS1 = test: beta cell apoptosis inhibitors, cytokine rescue, dose response, luminescence, retest (AID 449756); format: functional, cell-based; settings: Rattus norvegicus;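 also: cell death triggered by IL-1 beta plus TNF-alpha plus IFN-gamma mixture; protective hits raise ATP signal compared with cytokine alone wells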
# [4] = NIH-3T3 fibroblast cytotoxicity, dose response, cytotoxicity control, cell-based, fluorescence, Alamar Blue, secondary assay (AID 2327); format: functional;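 also: NIH-3T3 mouse fibroblasts cultured with fluconazole at 8 µg/mL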
# [5] = C. albicans growth with fluconazole, confirmation, fluorescence, retest (AID 2467); format: functional, cell-based
# [6] = inhibitors of firefly luciferase expression or activity, dose response, H4 neuroglioma cells, luminescence (AID 1990); format: functional, cell-based
# Cytochrome P450 1A2 = biological target: T1, Cytochrome P450 1A2 (Homo sapiens, UniProt P05177);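 also: PubChem cytochrome P450 panel assay, CYP1A2 panel member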
# T1 sequence (P05177 whole entry): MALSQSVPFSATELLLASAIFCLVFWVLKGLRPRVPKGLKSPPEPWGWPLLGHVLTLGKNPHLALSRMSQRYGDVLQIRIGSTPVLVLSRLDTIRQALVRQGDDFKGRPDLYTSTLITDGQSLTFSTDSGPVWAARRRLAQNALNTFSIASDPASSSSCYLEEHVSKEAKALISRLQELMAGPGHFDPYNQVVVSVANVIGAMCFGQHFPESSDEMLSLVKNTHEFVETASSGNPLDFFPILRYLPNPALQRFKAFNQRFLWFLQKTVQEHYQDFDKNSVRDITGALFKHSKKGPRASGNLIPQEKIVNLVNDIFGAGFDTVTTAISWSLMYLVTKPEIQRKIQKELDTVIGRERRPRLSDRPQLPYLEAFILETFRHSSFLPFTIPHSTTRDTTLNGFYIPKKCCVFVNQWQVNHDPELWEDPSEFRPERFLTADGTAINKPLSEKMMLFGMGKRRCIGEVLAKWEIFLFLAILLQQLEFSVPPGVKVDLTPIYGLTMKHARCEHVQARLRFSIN
# [7] = inhibitors of intracellular T. cruzi replication, confirmation, NIH3T3 host cells, beta-gal luminescence (AID 2044); format: functional, cell-based;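 also: intracellular parasites grown in NIH/3T3 mouse fibroblasts as host cells; luminescent beta-galactosidase reporter signal from transgenic T. cruzi replicating inside host cells; inhibitors lower the luminescence signal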
# [8] = cytotoxicity toward NIH3T3 fibroblasts, dose response, counter-screen, cell-based, ATP luminescence, mouse fibroblasts (AID 2010); format: functional; settings: NIH3T3;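 also: cells exposed to compound for about 90 hours before reading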
# [9] = test system: Streptococcus sp. 'group A'; test: growth inhibition of control SK(-) GAS strain, dose response, counter-screen for streptokinase expression inhibitor project, luminescence, kanamycin, BacTiterGlo, confirmation (AID 1900); format: functional, organism-based; settings: Streptococcus sp. 'group A'
# Streptokinase A = biological target: T2, Streptokinase A (Streptococcus pyogenes serotype M1, UniProt P10520); test: S. pyogenes streptokinase expression inhibitors, potency, dose response, plasminogen activation absorbance, OD405 (AID 1914); format: functional, Streptococcus pyogenes M1 GAS;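 also: secreted streptokinase activity via plasminogen activation per viability signal from cell pellet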
# T2 sequence (P10520 whole entry): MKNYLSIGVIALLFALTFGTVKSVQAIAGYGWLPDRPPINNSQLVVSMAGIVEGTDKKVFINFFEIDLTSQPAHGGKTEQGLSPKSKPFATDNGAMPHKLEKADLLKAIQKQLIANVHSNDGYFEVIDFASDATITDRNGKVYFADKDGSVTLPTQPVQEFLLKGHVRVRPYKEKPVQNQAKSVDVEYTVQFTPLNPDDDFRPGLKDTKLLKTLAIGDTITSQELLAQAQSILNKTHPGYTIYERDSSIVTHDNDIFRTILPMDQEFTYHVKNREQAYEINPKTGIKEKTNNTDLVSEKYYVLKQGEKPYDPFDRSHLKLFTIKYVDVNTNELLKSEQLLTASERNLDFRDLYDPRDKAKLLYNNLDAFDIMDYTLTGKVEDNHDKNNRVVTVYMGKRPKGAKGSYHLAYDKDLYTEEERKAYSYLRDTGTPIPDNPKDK
# Streptococcus = test: Group A Streptococcus viability loss, dose response, counter-screen for streptokinase expression inhibitor project, luminescence, BacTiterGlo (AID 1915); format: functional, organism-based; settings: Streptococcus;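 also: potency for reduction of bacterial viability or growth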
# cells = format: functional
# Sequence of Cytochrome P450 3A4 (P08684 whole entry): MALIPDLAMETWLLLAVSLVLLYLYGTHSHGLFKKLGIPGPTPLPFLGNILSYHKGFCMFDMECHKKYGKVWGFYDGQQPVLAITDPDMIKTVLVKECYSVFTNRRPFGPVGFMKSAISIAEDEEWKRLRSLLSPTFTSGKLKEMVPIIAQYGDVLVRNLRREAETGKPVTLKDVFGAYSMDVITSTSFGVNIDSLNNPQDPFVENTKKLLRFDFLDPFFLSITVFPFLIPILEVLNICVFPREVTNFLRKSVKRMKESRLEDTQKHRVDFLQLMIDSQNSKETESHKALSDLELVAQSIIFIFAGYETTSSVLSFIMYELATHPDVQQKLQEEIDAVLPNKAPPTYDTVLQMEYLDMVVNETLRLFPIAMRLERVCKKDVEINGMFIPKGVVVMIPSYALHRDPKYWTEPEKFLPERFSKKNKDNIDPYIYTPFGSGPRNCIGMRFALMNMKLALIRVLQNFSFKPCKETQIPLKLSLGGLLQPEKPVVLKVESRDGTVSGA
# Sequence of Cytochrome P450 2C19 (P33261 whole entry): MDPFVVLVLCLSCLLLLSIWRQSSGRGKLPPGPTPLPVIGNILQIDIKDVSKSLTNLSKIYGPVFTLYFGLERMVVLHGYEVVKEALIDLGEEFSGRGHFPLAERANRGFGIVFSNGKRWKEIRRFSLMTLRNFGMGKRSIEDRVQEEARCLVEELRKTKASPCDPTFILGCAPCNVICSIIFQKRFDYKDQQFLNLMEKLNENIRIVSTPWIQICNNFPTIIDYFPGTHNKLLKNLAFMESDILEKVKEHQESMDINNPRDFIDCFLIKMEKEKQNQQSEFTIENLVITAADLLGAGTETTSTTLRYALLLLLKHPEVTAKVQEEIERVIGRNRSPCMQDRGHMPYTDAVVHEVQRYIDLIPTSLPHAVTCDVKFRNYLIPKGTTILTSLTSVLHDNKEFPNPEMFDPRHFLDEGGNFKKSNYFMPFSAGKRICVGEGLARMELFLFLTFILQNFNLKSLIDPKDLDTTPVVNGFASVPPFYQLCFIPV
# Sequence of Cytochrome P450 2D6 (P10635 whole entry): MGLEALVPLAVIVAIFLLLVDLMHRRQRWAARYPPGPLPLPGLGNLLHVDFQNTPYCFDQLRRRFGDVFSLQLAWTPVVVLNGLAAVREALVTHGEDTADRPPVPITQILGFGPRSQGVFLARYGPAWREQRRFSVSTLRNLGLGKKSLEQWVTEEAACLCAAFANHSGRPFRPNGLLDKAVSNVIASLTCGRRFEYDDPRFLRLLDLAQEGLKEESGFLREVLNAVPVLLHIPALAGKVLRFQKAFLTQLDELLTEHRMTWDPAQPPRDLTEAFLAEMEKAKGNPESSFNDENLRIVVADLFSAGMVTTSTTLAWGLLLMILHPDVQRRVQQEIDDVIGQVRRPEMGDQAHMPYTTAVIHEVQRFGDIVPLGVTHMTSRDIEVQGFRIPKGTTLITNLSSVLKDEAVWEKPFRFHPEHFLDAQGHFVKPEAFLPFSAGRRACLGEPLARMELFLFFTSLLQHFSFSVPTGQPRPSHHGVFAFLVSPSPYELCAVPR
smiles,measurement,setting,value
CN(C)C(=O)c1ccc(-c2nccc(-n3ccnc3)n2)cc1,AC50,Cytochrome P450 2C19; read-out: AC50,39.8 µM (inconclusive)
same,AC50,Cytochrome P450 2D6,39.8 µM (inconclusive)
same,AC50,Cytochrome P450 3A4,3.16 µM (inconclusive)
N#Cc1cc(-c2ccccc2)cnc1Sc1ccc(Cl)cc1,AC50,Cytochrome P450 2D6,10 µM (inconclusive)
same,AC50,Cytochrome P450 3A4,12.6 µM (inconclusive)
CC(=O)c1ccc(N=Nc2ccc(N(C)C)cc2)cc1,EC50,[1],4.44 µM (active)
same,EC50,[2],4.11 µM (inconclusive)
CCOC(=O)c1nnc2cc(-c3ccc(Br)cc3)nn2c1C,EC50,[3],27.6 µM (active)
same,EC50,H4,88.8 µM (active)
CCN(CC)c1ccc(/C=N/NC(=O)Cc2cccs2)c(O)c1,AC50,INS1,0.916 µM (active)
CN(C)c1ncnc2ccc(-c3ccoc3)cc12,AC50,Cytochrome P450 2C19; read-out: AC50,39.8 µM (inconclusive)
same,AC50,Cytochrome P450 3A4,12.6 µM (inconclusive)
Cc1cc(Oc2ccccc2)nc(-c2ccccc2O)n1,EC50,[4],> 150 µM (inconclusive)
same,EC50,[5],> 38 µM (not active)
Cc1cc(C)c(NC(=O)CCN2CCN(Cc3ccccc3)CC2)c(C)c1,EC50,[6],> 120 µM (not active)
same,EC50,[1],> 120 µM (not active)
same,EC50,[2],> 120 µM (not active)
CN(C)c1ncc2ncc(=O)n(C)c2n1,AC50,Cytochrome P450 2D6,20 µM (inconclusive)
O=c1c(-c2ccc(Cl)cc2)nc2cnc(N3CCOCC3)nc2n1C1CC1,AC50,Cytochrome P450 1A2,1.26 µM (inconclusive)
COC(CN(C)C(=O)c1ccc2c(c1)NC(=O)c1ccccc1S2)OC,EC50,[4],> 150 µM (inconclusive)
same,EC50,[5],> 38 µM (not active)
CN1/C(=C\P(=O)(N(C)C)N(C)C)C(C)(C)c2ccccc21,EC50,[7],2.96 µM (active)
same,EC50,[8],> 60 µM (not active)
same,AC50,INS1,4.32 µM (active)
Nc1ncccc1OCc1cccc(C(F)(F)F)c1,EC50,[6],> 120 µM (not active)
same,EC50,[1],> 120 µM (not active)
same,EC50,[2],> 120 µM (not active)
N[C@@](C(=O)O)(c1ccc(P(=O)(O)O)cc1)C1CC1,AC50,Cytochrome P450 2C19; read-out: AC50,25.1 µM (inconclusive)
same,AC50,Cytochrome P450 1A2,50.1 µM (inconclusive)
COc1ccccc1CCn1c(=O)c(CCc2ccccc2)nc2cncnc21,AC50,Cytochrome P450 2D6,25.1 µM (inconclusive)
O=C(N/N=C/c1ccccc1O)NC12CC3CC(CC(C3)C1)C2,EC50,[3],28.5 µM (active)
same,EC50,[9],22.3 µM (active)
same,EC50,H4,> 120 µM (not active)
same,EC50,Streptokinase A,> 150 µM (not active)
same,EC50,Streptococcus,15.1 µM (active)
COc1cc2nc3c(c([Si](C)(C)C(C)(C)C)c2cc1OC)Cn1c-3cccc1=O,AC50,Cytochrome P450 2C19; read-out: AC50,39.8 µM (inconclusive)
COc1ccc2oc(=O)c(/C(C)=N/NC(=O)c3ccncc3)cc2c1,IC50,cells,1.31 µM (active)
CN1CCN(c2ncc3ncc(=O)n(Cc4ccc(F)cc4)c3n2)CC1,AC50,Cytochrome P450 1A2,25.1 µM (inconclusive)
same,AC50,Cytochrome P450 3A4,15.8 µM (inconclusive)
CC(C)OC(=O)COc1ccc(-c2ccccc2)cc1,IC50,cells,6.13 µM (active)
C[C@H](CC(C#N)(c1ccccc1)c1ccccc1)N1CCCCC1,AC50,Cytochrome P450 2C19; read-out: AC50,1.58 µM (inconclusive)
same,AC50,Cytochrome P450 3A4,3.98 µM (inconclusive)
COc1cc(-c2nnc(SCC(=O)Nc3ccc4c(c3)OCCO4)o2)cc(OC)c1OC,AC50,Cytochrome P450 1A2,15.8 µM (inconclusive)
CC(C)(C(=O)c1cccnc1)c1cccnc1 [METYRAPONE],AC50,Cytochrome P450 1A2,12.6 µM (inconclusive)
Cc1ccccc1Nc1ncccc1C(=O)N1CCOCC1,EC50,[4],> 160 µM (inactive)
same,EC50,[5],> 38 µM (not active)
COc1cccc(NC(=S)N(CCc2nc3cc(C)c(C)cc3[nH]2)Cc2cccnc2)c1,AC50,Cytochrome P450 2D6,0.126 µM (inconclusive)
Cn1cccc1CNCCc1ccccc1,AC50,Cytochrome P450 2C19; read-out: AC50,14.1 µM (inconclusive)
same,AC50,Cytochrome P450 3A4,31.6 µM (inconclusive)
Nc1nc(Br)c2c(F)cccc2c1-c1ccc(F)cc1,AC50,Cytochrome P450 2C19; read-out: AC50,1.12 µM (inconclusive)
COc1ccc(-n2c(=O)c(-c3cccc(Cl)c3)nc3cncnc32)cc1,AC50,Cytochrome P450 2C19; read-out: AC50,39.8 µM (inconclusive)
Cc1c(/C=N/CCOCc2ccccc2)cnn1C,AC50,Cytochrome P450 2C19; read-out: AC50,22.4 µM (inconclusive)
same,AC50,Cytochrome P450 2D6,25.1 µM (inconclusive)
CCn1cc(C(=O)c2ccccc2)c2ccccc21,EC50,[4],> 160 µM (inactive)
same,EC50,[5],3.63 µM (active)
CC(C)(C)NC(=O)c1ccc(NC(=O)c2ccccc2-c2ccccc2C(=O)O)cc1,IC50,cells,6.42 µM (active)
Cc1ccccc1-c1nc(NC2CC2)c2ccccc2n1,AC50,Cytochrome P450 2D6,39.8 µM (inconclusive)
COc1ccc(/N=C/c2ccc(CNS(=O)(=O)c3ccc(Cl)cc3)o2)cc1,AC50,Cytochrome P450 2C19; read-out: AC50,11.2 µM (inconclusive)
same,AC50,Cytochrome P450 1A2,25.1 µM (inconclusive)
same,AC50,Cytochrome P450 3A4,31.6 µM (inconclusive)
CCN(CC)CCOC(=O)c1ccc(N)cc1 [PROCAINE],AC50,Cytochrome P450 2D6,10 µM (inconclusive) and 39.8 µM (inconclusive)
O=C(Cc1ccc(Br)cc1)Nc1ccccc1Sc1ccccc1,AC50,Cytochrome P450 2D6,11.2 µM (inconclusive)
Cc1cc(C)nc(SCC(=O)Nc2ccccc2[N+](=O)[O-])n1,AC50,Cytochrome P450 1A2,17.8 µM (inconclusive)
Cc1cc(C)c(S(C)(=O)=O)c(Oc2ccc(C(C)(C)C)cc2)n1,EC50,[6],15.7 µM (active)
same,EC50,[1],1.08 µM (active)
same,EC50,[2],80.7 µM (active)
same,AC50,Cytochrome P450 3A4,14.1 µM (inconclusive)
Cc1ccc2c(c1)S/C(=C/c1ccc[n+](CCO)c1)N2C,EC50,[7],0.832 µM (active)
same,EC50,[8],> 60 µM (not active)
same,AC50,INS1,2.98 µM (active)
CCNCCCNCCCNCCCNCC [BIS(ETHYL)NORSPERMINE],AC50,Cytochrome P450 2C19,inconclusive
Oc1cccc(Nc2ncnc3c2oc2ccccc23)c1,EC50,[4],> 160 µM (inactive)
same,EC50,[5],3.71 µM (active)
CCOc1ccc2c(ccc(/C=C/c3cc(C)c4cccnc4c3O)[n+]2C)c1,AC50,Cytochrome P450 2D6,3.16 µM (inconclusive)
same,AC50,Cytochrome P450 1A2,6.31 µM (inconclusive)
CCOc1cc(/C=N/NC(=O)c2cccnc2)ccc1OCC(N)=O,EC50,[4],> 150 µM (inactive)
same,EC50,[5],> 38 µM (not active)
Cc1cc(C)c2cc(CN(CCO)C(=O)Nc3ccc(F)cc3)c(O)nc2c1,EC50,[6],18.3 µM (active)
same,EC50,[1],> 120 µM (not active)
same,EC50,[2],> 120 µM (not active)
CC1CCN(C(=O)c2ccc(-c3ccccc3Cl)o2)CC1,IC50,cells,33.8 µM (active)
CNC(=O)C(=O)NCCc1ccc(Cl)cc1,AC50,Cytochrome P450 2D6,28.2 µM (inconclusive)
CCCOc1ccccc1C1CC(=O)NC(C)=C1C(=O)OCC(C)C (centres undefined),AC50,Cytochrome P450 1A2,11.2 µM (inconclusive)
Cn1c(=O)c(-c2ccccc2)nc2cnc(Nc3ccccc3)nc21,AC50,Cytochrome P450 2C19; read-out: AC50,0.0398 µM (inconclusive)
Fc1ccc(N/N=C/c2cccnc2)c(F)c1,EC50,[4],16.3 µM (inconclusive)
same,EC50,[5],> 38 µM (not active)
CC1CCCC(NC(=O)c2nnc(O)c3ccccc23)C1C (centres undefined),AC50,Cytochrome P450 2C19; read-out: AC50,20 µM (inconclusive)
CCn1c2ccccc2c2cc(NC(=O)C(C)C)ccc21,EC50,[4],63.3 µM (active)
same,EC50,[5],> 38 µM (not active)
CCc1cc2c(=O)c(-c3cnn(-c4ccccc4)c3)coc2c(CN2CCOCC2)c1O,AC50,Cytochrome P450 1A2,15.8 µM (inconclusive)
COc1ccccc1N1CCN(C(=O)C(NS(=O)(=O)c2cccs2)c2ccccc2)CC1 (centres undefined),AC50,Cytochrome P450 2D6,15.8 µM (inconclusive)
same,AC50,Cytochrome P450 1A2,2.51 µM (inconclusive)
CNc1ncncc1-c1ccc(C(=O)N(C)C)cc1,AC50,Cytochrome P450 1A2,15.8 µM (inconclusive)
COc1ccc(S(=O)(=O)N2CC3C4C=CC(C4)C3C2)cc1 (centres undefined),AC50,Cytochrome P450 2D6,15.8 µM (inconclusive)
